This is an account of results in patent US4491631A, “Assay method for lipid component, assay composition, and process for production of enzyme used therefor” (Toyo Jozo Kabushiki Kaisha, priority 1981, dated 1985).

Format in all cases: biochemical, Pseudomonas fragi B-0771
Assay [1] has as its target T1, 3-hydroxyacyl-CoA dehydrogenase activity of multi-active enzyme (Pseudomonas fragi, UniProt P28793).
T1 construct: Crude enzyme was prepared from microbial cells of Pseudomonas fragi B-0771; endogenous in cells; host or cells: Pseudomonas fragi B-0771 FERM-P No. 5701 (enzyme extracted with lysozyme and purified from its own cells, not recombinant)
The assay can be described thus: Substrate specificity of 3-hydroxyacyl-CoA dehydrogenase activity. To be noted: 3-hydroxyacyl-CoA used as substrate of 3-hydroxyacyl-CoA dehydrogenase activity. As for the experimental part:
(§1) The enzyme solution (50 μl) was added to the above reaction mixture, which was preincubated at 27° C. for 2 minutes, and the mixture was incubated at 37° C. for 10 minutes. 0.5% sodium dodecyl sulfate (2.0 ml) was added to stop the reaction and the absorbency was measured at 550 nm (ΔA550) One unit (1 U) is defined as the amount of enzyme which generates 1 μmole of reduced NAD in one minute. Enzyme activity is defined by the following equation: [formula] (c) Assay method of 3-ketoacyl-CoA thiolase activity:
3-hydroxyacyl-CoA dehydrogenase activity was measured by using the following embodiments of 3-hydroxyacyl-CoA: […]

The target of assay [2] is T1, 3-hydroxyacyl-CoA dehydrogenase activity of multi-active enzyme. Description: Effect of metal ions on 3-hydroxyacyl-CoA dehydrogenase activity. To be noted: 1 mM metal ion; control 100; 10 min. As to the method:
as §1
(9) Effect of metal ions:
The effect of metal ions was measured on 3-hydroxyacyl-CoA dehydrogenase activity.

Assay [3] shares this target. Description: Effect of surface active agents on 3-hydroxyacyl-CoA dehydrogenase activity. To be noted: 10 min, 0.1% surface active agent, control 100; for activity at 0.1 %: read-out: Relative activity. As for the experimental part: as §1
(10) Effect of surface active agents:
The effect of surface active agents was measured on 3-hydroxyacyl-CoA dehydrogenase activity.

T1 sequence (P28793 whole entry): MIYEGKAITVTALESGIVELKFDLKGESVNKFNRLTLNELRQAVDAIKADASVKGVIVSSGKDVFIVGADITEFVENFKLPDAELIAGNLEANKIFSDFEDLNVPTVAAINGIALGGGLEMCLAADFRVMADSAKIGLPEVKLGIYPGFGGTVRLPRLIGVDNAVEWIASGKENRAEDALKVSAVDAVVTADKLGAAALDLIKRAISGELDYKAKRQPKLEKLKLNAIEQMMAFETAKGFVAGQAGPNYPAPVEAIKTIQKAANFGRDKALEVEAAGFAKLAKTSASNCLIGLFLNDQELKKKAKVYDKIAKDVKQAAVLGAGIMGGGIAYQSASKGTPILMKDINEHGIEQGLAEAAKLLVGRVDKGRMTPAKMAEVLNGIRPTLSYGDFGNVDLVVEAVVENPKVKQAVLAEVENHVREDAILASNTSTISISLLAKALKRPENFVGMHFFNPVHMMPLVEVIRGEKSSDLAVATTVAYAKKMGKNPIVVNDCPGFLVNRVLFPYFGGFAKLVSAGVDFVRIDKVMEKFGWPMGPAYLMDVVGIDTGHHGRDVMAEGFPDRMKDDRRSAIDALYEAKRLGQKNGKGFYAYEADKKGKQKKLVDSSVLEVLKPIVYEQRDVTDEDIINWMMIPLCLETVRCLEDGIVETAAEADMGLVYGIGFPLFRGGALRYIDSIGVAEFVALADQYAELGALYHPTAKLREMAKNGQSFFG
T1 sequence (P28790 whole entry partner): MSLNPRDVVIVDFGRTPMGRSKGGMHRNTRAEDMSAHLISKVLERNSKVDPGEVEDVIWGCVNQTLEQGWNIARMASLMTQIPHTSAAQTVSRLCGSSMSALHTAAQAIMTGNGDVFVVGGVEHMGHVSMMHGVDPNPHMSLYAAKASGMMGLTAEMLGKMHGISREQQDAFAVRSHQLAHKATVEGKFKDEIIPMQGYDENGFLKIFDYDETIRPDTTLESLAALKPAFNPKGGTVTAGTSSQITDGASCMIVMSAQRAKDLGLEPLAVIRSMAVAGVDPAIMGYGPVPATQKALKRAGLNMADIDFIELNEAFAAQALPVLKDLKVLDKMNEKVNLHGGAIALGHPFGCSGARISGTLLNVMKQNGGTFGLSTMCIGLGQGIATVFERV

For the compound `CCCCCCCCCCCCCCCCCC(O)CC(=O)SCCNC(=O)CCNC(=O)[C@H](O)C(C)(C)COP(=O)(O)OP(=O)(O)OC[C@H]1O[C@@H](n2cnc3c(N)ncnc32)[C@H](O)[C@@H]1OP(=O)(O)O` (some centres unmarked) [3-hydroxyarachidoyl-CoA], in assay [1], the Relative activity amounted to 9.5%.

For the compound `CCCC(O)CC(=O)SCCNC(=O)CCNC(=O)[C@H](O)C(C)(C)COP(=O)(O)OP(=O)(O)OC[C@H]1O[C@@H](n2cnc3c(N)ncnc32)[C@H](O)[C@@H]1OP(=O)(O)O` (some centres unmarked) [3-hydroxycaproyl-CoA], the Relative activity in assay [1] stood at 56.5%.

`CCCCCCCC(O)CC(=O)SCCNC(=O)CCNC(=O)[C@H](O)C(C)(C)COP(=O)(O)OP(=O)(O)OC[C@H]1O[C@@H](n2cnc3c(N)ncnc32)[C@H](O)[C@@H]1OP(=O)(O)O` (some centres unmarked) [3-hydroxycapryl-CoA]: the Relative activity in assay [1] is given as 99.0%.

On to `CCCCCC(O)CC(=O)SCCNC(=O)CCNC(=O)[C@H](O)C(C)(C)COP(=O)(O)OP(=O)(O)OC[C@H]1O[C@@H](n2cnc3c(N)ncnc32)[C@H](O)[C@@H]1OP(=O)(O)O` (some centres unmarked) [3-hydroxycaprylyl-CoA], for which the Relative activity in assay [1] stood at 88.1%.

In the case of `CCCCCCCCCC(O)CC(=O)SCCNC(=O)CCNC(=O)[C@H](O)C(C)(C)COP(=O)(O)OP(=O)(O)OC[C@H]1O[C@@H](n2cnc3c(N)ncnc32)[C@H](O)[C@@H]1OP(=O)(O)O` (some centres unmarked) [3-hydroxylauryl-CoA], the Relative activity in assay [1] came out at 100.0%.

With `CC/C=C\C/C=C\C/C=C\CCCCCC(O)CC(=O)SCCNC(=O)CCNC(=O)[C@H](O)C(C)(C)COP(=O)(O)OP(=O)(O)OC[C@H]1O[C@@H](n2cnc3c(N)ncnc32)[C@H](O)[C@@H]1OP(=O)(O)O` (some centres unmarked) [3-hydroxylinolenyl-CoA], in assay [1], the Relative activity was 99.0%.

Turning to `CCCCCCCCCCCC(O)CC(=O)SCCNC(=O)CCNC(=O)[C@H](O)C(C)(C)COP(=O)(O)OP(=O)(O)OC[C@H]1O[C@@H](n2cnc3c(N)ncnc32)[C@H](O)[C@@H]1OP(=O)(O)O` (some centres unmarked) [3-hydroxymyristoyl-CoA], in assay [1], the Relative activity came to 98.0%.

Regarding `CCCCCCCC/C=C\CCCCCC(O)CC(=O)SCCNC(=O)CCNC(=O)[C@H](O)C(C)(C)COP(=O)(O)OP(=O)(O)OC[C@H]1O[C@@H](n2cnc3c(N)ncnc32)[C@H](O)[C@@H]1OP(=O)(O)O` (some centres unmarked) [3-hydroxyoleyl-CoA], the Relative activity in assay [1] was determined as 57.5%.

Consider `CCCCCCCCCCCCCC(O)CC(=O)SCCNC(=O)CCNC(=O)[C@H](O)C(C)(C)COP(=O)(O)OP(=O)(O)OC[C@H]1O[C@@H](n2cnc3c(N)ncnc32)[C@H](O)[C@@H]1OP(=O)(O)O` (some centres unmarked) [3-hydroxypalmitoyl-CoA], for which, in assay [1], the Relative activity is recorded as 75.5%.

Take `CCCCCCCCCCCCCCCC(O)CC(=O)SCCNC(=O)CCNC(=O)[C@H](O)C(C)(C)COP(=O)(O)OP(=O)(O)OC[C@H]1O[C@@H](n2cnc3c(N)ncnc32)[C@H](O)[C@@H]1OP(=O)(O)O` (some centres unmarked) [3-hydroxystearyl-CoA]: the Relative activity in assay [1] was 30.5%.

`[Ba+2].[Cl-].[Cl-]` [BaCl2]: the Relative activity in assay [2] stood at 106%.

Consider `[Ca+2].[Cl-].[Cl-]` [CaCl 2], for which the Relative activity in assay [2] was found to be 113%.

Turning to `[Cl-].[Cl-].[Co+2]` [CoCl2], the Relative activity in assay [2] is given as 34%.

On to `[Cl][Cu][Cl]` [CuCl2], for which the Relative activity in assay [2] stood at 12%.

`[Cl-].[Cl-].[Mg+2]` [MgCl2]: the Relative activity in assay [2] is on record as 113%.

As for `[Cl][Mn][Cl]` [MnCl2], in assay [2], the Relative activity amounted to 32%.

In the case of `[Cl][Ni][Cl]` [NiCl2], the Relative activity in assay [2] was 95%.

Consider `[Cl-].[Cl-].[Zn+2]` [ZnCl2], for which the Relative activity in assay [2] is listed as 25%.

With `CCCCCCCCCCCCCCCC[N+](C)(C)C` [cetyltrimethylammonium chloride], in assay [3], the activity at 0.1 % is 0%.

`C[C@H](CCC(=O)O)[C@H]1CC[C@H]2[C@@H]3CC[C@@H]4C[C@H](O)CC[C@]4(C)[C@H]3C[C@H](O)[C@]12C` [sodium deoxycholate]: the activity at 0.1 % in assay [3] was 2%.

On to `CCCCCCCCCCCCOS(=O)(=O)[O-].[Na+]` [sodium lauryl sulfate], for which the activity at 0.1 % in assay [3] was found to be 0%.

As for Triton X-100, the Relative activity in assay [3] is on record as 96%.

On to laurylbenzene sulfonate, for which, in assay [3], the Relative activity was determined as 0%.
